Assay results: patent US20210040118A1, “IMMUNOMODULATORS, COMPOSITIONS AND METHODS THEREOF” (BETTA PHARMACEUTICALS CO., LTD, priority 2018, published 2021)

Biological target: T1, PD-1/PD-L1 (Homo sapiens, UniProt Q9NZQ7)
T1 construct: Recombinant human PD-L1 protein (19-238) with a His-tag at the C-terminus; purchased AcroBiosystems PD1-H5229 (PD-L1); PD1-H5257 (PD-1)
Test: PD-1/PD-L1 homogenous time-resolved fluorescence (HTRF) binding assay
Conditions: recombinant human PD-L1 (19-238) His-tag / human PD-1 (25-167) Fc tag, class symbols
Experimental: Resolved Fluorescence (HTRF) Binding Assay
The assays were conducted in a standard black 384-well polystyrene plate with a final volume of 20 μL. Inhibitors were first serially diluted in DMSO and then added to the plate wells before the addition of other reaction components. The final concentration of DMSO in the assay was 1%. The assays were carried out at 25° C. in the PBS buffer (pH 7.4) with 0.05% Tween-20 and 0.1% BSA. Recombinant human PD-L1 protein (19-238) with a His-tag at the C-terminus was purchased from AcroBiosy stems (PD1-H5229). Recombinant human PD-1 protein (25-167) with Fc tag at the C-terminus was also purchased from AcroBiosystems (PD1-H5257). PD-L1 and PD-1 proteins were diluted in the assay buffer and 10 μL was added to the plate well. Plates were centrifuged and proteins were preincubated with inhibitors for 40 min. The incubation was followed by the addition of […] of HTRF detection buffer supplemented with Europium cryptate-labeled anti-human IgG (PerkinElmer-AD0212) specific for Fc and anti-His antibody conjugated to SureLight®-Allophycocyanin (APC, PerkinElmer-AD0059H). After centrifugation, the plate was incubated at 25° C. for 60 min. Before reading on a PHERAstar FS plate reader (665 nm/620 nm ratio). Final concentrations in the assay were […] PD1, 10 nM PD-L1, 1 nM europium anti-human IgG and 20 nM anti-His-Allophycocyanin. IC50 determination was performed by fitting the curve of percent control activity versus the log of the inhibitor concentration using the GraphPad Prism 5.0 software.
Data obtained for the Example compounds using the PD-1/PD-L1 homogenous time-resolved fluorescence (HTRF) binding assay described in Example A is provided in Table 4.

T1 sequence (Q9NZQ7 19-238): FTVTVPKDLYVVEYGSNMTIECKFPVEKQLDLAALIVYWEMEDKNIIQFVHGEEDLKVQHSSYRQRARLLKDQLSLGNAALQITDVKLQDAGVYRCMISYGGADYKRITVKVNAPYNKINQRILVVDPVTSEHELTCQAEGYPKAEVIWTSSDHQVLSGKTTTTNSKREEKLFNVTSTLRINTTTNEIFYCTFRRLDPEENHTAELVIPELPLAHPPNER

| IC50 | Compound |
| --- | --- |
| < 25 nM | Cc1c(Nc2nccc3cc(CNCC(=O)N(C)CCO)cnc23)cccc1-c1cccc2c1CCN2C(=O)C1=NC2CCN(CC(=O)O)CC2S1 (centres unmarked) [Example 166, 2-(2-(4-(3-((3-(((2-((2-hydroxyethyl)(methyl)amino)-2-oxoethyl)amino)methyl)-1,7-naphthyridin-8-yl)amino)-2-methylphenyl)indoline-1-carbonyl)-3a,6,7,7a-tetrahydrothiazolo[5,4-c]pyridin-5(4H)-yl)acetic acid] |
| < 25 nM | Cc1c(NC(=O)c2ncc(CN3CCCC[C@H]3C(=O)O)s2)cccc1-c1cccc2c1CCN2C(=O)c1ncc(CN2CCCC[C@H]2C(=O)O)s1 [Example 72, (S)-1-((2-((3-(1-(5-(((S)-2-carboxypiperidin-1-yl)methyl)thiazole-2-carbonyl)indolin-4-yl)-2-methylphenyl)carbamoyl)thiazol-5-yl)methyl)piperidine-2-carboxylic acid] |
| < 25 nM | Cc1c(NC(=O)c2ccc3c(n2)CCN(CC(=O)O)C3)cccc1-c1cccc(NC(=O)c2ccc3c(n2)CCN(CC(=O)O)C3)c1C [Example 173, 2,2′-((((2,2′-dimethyl-[1,1′-biphenyl]-3,3′-diyl)bis(azanediyl))bis(carbonyl))bis(7,8-dihydro-1,6-naphthyridine-2,6(5H)-diyl))diacetic acid] |
| < 25 nM | NC(=O)CN1CCc2nc(C(=O)N3CCc4c(-c5cccc6c5CCN6C(=O)c5nc6c(s5)CN(CC(N)=O)CC6)cccc43)sc2C1 [Example 104, 2,2′-(([4,4′-biindoline]-1,1′-dicarbonyl)bis(6,7-dihydrothiazolo[5,4-c]pyridine-2,5(4H)-diyl))diacetamide] |
| < 25 nM | Cc1c(NC(=O)c2nc3c(s2)CN(CCCC(=O)O)CC3)cccc1-c1cccc(NC(=O)c2nc3c(s2)CN(CCCC(=O)O)CC3)c1C [Example 78, 4,4′-((((2,2′-dimethyl-[1,1′-biphenyl]-3,3′-diyl)bis(azanediyl))bis(carbonyl))bis(6,7-dihydrothiazolo[5,4-c]pyridine-2,5(4H)-diyl))dibutyric acid] |
| < 25 nM | 1,1′-bis((6,7-dihydro-4H-512-thiazolo[5,4-c]pyridin-2-yl)methyl)-4,4′-biindoline [Example 46] |
| < 25 nM | COC(=O)CN1CCc2nc(C(=O)N3CCc4c(-c5cccc6c5CCN6C(=O)c5nc6c(s5)CN(CC(=O)OC)CC6)cccc43)sc2C1 [Example 102, dimethyl 2,2′-(([4,4′-biindoline]-1,1′-dicarbonyl)bis(6,7-dihydrothiazolo[5,4-c]pyridine-2,5(4H)-diyl))diacetate] |
| < 25 nM | Cc1c(NC(=O)c2nnc3n2CCNC3)cccc1-c1cccc(NC(=O)c2nnc3n2CCNC3)c1C [Example 39, N,N′-(2,2′-dimethyl-[1,1′-biphenyl]-3,3′-diyl)bis(5,6,7,8-tetrahydro-[1,2,4]triazolo[4,3-a]pyrazine-3-carboxamide)] |
| 100 to 200 nM | Cc1c(-c2cccc(N(C)C(=O)c3nc4ccc(N)cc4s3)c2C)cccc1N(C)C(=O)c1nc2c(s1)CNCC2 [Example 21, N-(3′-(6-amino-N-methylbenzo[d]thiazole-2-carboxamido)-2,2′-dimethyl-[1,1′-biphenyl]-3-yl)-N-methyl-4,5,6,7-tetrahydrothiazolo[5,4-c]pyridine-2-carboxamide] |
| < 25 nM | Cc1c(NC(=O)c2nc3c(s2)CNCC3)cccc1-c1cccc(NC(=O)c2nc3c(s2)CN(C)CC3)c1Cl [Example 50, N-(2-chloro-2′-methyl-3′-(4,5,6,7-tetrahydrothiazolo[5,4-c]pyridine-2-carboxamido)biphenyl-3-yl)-5-methyl-4,5,6,7-tetrahydrothiazolo[5,4-c]pyridine-2-carboxamide] |

Same assay, conditions: recombinant human PD-L1 (19-238) His-tag / human PD-1 (25-167) Fc tag, numeric values

| IC50 | Compound |
| --- | --- |
| 0.48 nM | Cc1c(NC(=O)c2nc3c(s2)CNCC3)cccc1-c1cccc(NC(=O)c2nc3c(s2)CNCC3)c1C [Example 1, N,N′-(2,2′-dimethyl-[1,1′-biphenyl]-3,3′-diyl)bis(4,5,6,7-tetrahydrothiazolo[5,4-c]pyridine-2-carboxamide)] |
